Our source for the effect on transduction values is US20160193325A1 (priority 2002, published 2016).

The assay deals with HCVpp. The settings on record: 25 μM AZT before and during infection; Huh-7.

Description: HCVpp were treated with 25 μM AZT (3′-azido-3′-deoxythymidine; Sigma-Aldrich, France) before and during infection of target cells (lane j).

Take `Cc1cn([C@H]2C[C@H](N=[N+]=[N-])[C@@H](CO)O2)c(=O)[nH]c1=O` [AZT, 3′-azido-3′-deoxythymidine]: the effect on transduction entry is listed as “inhibited transduction”.
